Converted amounts (≈) assume the structure as drawn. Read-outs that look alike come from different tables or passages of the source.
How the values were obtained:
[1] = tested on: E. cloacae 13047; test: Minimal inhibitory concentration, E. cloacae 13047; format: cell-based; conditions: 16 hour minimal inhibitory concentration at 37° C., read-out: MIC (μM) E. cloacae 13047
Procedure, shortened: (§1)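 MIC, in µM, taken as the lowest compound concentration preventing growth by OD600 after 16 h static incubation at 37 °C. Compound was twofold serially diluted in bacteria grown overnight in LB, or TSA for S. aureus, and diluted 1:100 twice.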

[2] = tested on: K. pneumoniae 700721; test: Minimal inhibitory concentration, K. pneumoniae 700721; format: cell-based; conditions: 16 hour minimal inhibitory concentration at 37° C., read-out: MIC (μM) K. pneumoniae 700721
Procedure, shortened: as §1

[3] = tested on: A. baumannii 19606; test: Minimal inhibitory concentration, A. baumannii 19606; format: cell-based; conditions: 16 hour minimal inhibitory concentration at 37° C., read-out: MIC (μM) A. baumannii 19606
Procedure, shortened: as §1

[4] = tested on: S. aureus RN4220; test: Minimal inhibitory concentration, S. aureus RN4220; format: cell-based; conditions: 16 hour minimal inhibitory concentration at 37° C., read-out: MIC (μM) S. aureus RN4220
Procedure, shortened: as §1

[5] = tested on: WT E. coli; test: Minimal inhibitory concentration in wild-type E. coli; format: cell-based, Escherichia coli; conditions: wild-type E. coli, 37° C., 16 hours, read-out: MIC (μM) in WT E. coli
Experimental: General Procedure for Determination of Minimal Inhibitory Concentrations
Overnight cultures (5 mL) of bacterial strains were grown in LB media or TSA media (for S. aureus) at 37° C. and with shaking at 220 rpm until saturation. The overnight culture was diluted serially 1:100 (50 μL in 5 mL sterile media) and then 1:100 (250 μL in 25 mL sterile media). The 25 mL of diluted culture was then dispensed to a sterile 96 well plate (Corning #3370). 198 μL of culture were dispensed into row A and 100 μL of this culture were dispensed into rows B-H. Aminocoumarin compound (DMSO stock) were added to the first row and then the row was mixed by pipetting. 100 μL of culture from row A were transferred to row B and the serial dilution continued until the final 100 μL from row H were discarded. The plate was incubated without shaking in a 37° C. for 16 hours and then read by visible light spectrophotometer (Molecular Devices) at 600 nm. The minimal inhibitory concentration (MIC) was determined as the lowest concentration of compound concentration that inhibited the growth of bacteria.

[6] = tested on: S. aureus MW2; test: Minimal inhibitory concentration, S. aureus MW2; format: cell-based; conditions: 16 hour minimal inhibitory concentration at 37° C., read-out: MIC (μM) S. aureus MW2 (MRSA)
Procedure, shortened: as §1

[7] = tested on: E. coli MC4100; test: Minimal inhibitory concentration, E. coli MC4100; format: cell-based; conditions: 16 hour minimal inhibitory concentration at 37° C., read-out: MIC (μM) E. coli MC4100 ara+
Procedure, shortened: as §1

[8] = tested on: E. coli 25922; test: Minimal inhibitory concentration, E. coli 25922; format: cell-based; conditions: 16 hour minimal inhibitory concentration at 37° C., read-out: MIC (μM) E. coli 25922
Procedure, shortened: as §1

[9] = Acinetobacter baumannii, 19606, 16 h
[10] = Staphylococcus aureus, RN4220, 16 h
[11] = Staphylococcus aureus, MRSA, 16 h

SMILES | MIC ([1]; Enterobacter cloacae, 13047) | MIC ([2]; Klebsiella pneumoniae, 700721) | MIC [3, 9] | MIC [4, 10] | MIC ([5]; Escherichia coli) | MIC [6, 11] | MIC ([7]; Escherichia coli, MC4100, 16 h) | MIC ([8]; Escherichia coli, 25922, 16 h) | MIC [1] | MIC [2] | MIC [3] | MIC [4] | MIC [5] | MIC [6] | MIC [7] | MIC [8]
CO[C@@H]1[C@@H](OC(N)=O)[C@@H](O)[C@H](Oc2ccc3c(O)c(NC(=O)Nc4cccc(-c5ccccc5)c4)c(=O)oc3c2C)OC1(C)C [Compound 3] | > 100 µM | > 100 µM | > 50 µM | 81 µM (≈ 50.2 µg/mL) | > 300 µM | 81 µM (≈ 50.2 µg/mL) | > 200 µM | > 200 µM |  |  |  |  |  |  |  | 
CO[C@@H]1[C@@H](OC(N)=O)[C@@H](O)[C@H](Oc2ccc3c(O)c(NC(=O)c4cccc(-c5ccc(Cl)cc5)c4)c(=O)oc3c2C)OC1(C)C [Compound 33] | > 100 µM | > 100 µM | 39 µM (≈ 24.9 µg/mL) | 1.96 µM (≈ 1.25 µg/mL) | 18 µM (≈ 11.5 µg/mL) | 0.98 µM (≈ 0.626 µg/mL) | 18 µM (≈ 11.5 µg/mL) | 20 µM (≈ 12.8 µg/mL) |  |  |  |  |  |  |  | 
CO[C@@H]1[C@@H](OC(N)=O)[C@@H](O)[C@H](Oc2ccc3c(O)c(NC(=O)C4CC4)c(=O)oc3c2C)OC1(C)C [Compound 13] | > 100 µM | > 100 µM | > 50 µM | > 100 µM | > 300 µM | > 100 µM | > 200 µM | > 200 µM |  |  |  |  |  |  |  | 
CO[C@@H]1[C@@H](OC(N)=O)[C@@H](O)[C@H](Oc2ccc3c(O)c(NC(=O)c4cc(O)c(O)c(-c5ccc6ccccc6c5)c4)c(=O)oc3c2C)OC1(C)C [Compound 96] |  |  |  |  |  |  |  |  | >100 µM | 76 µM (≈ 52.2 µg/mL) | 18 µM (≈ 12.4 µg/mL) | 9 µM (≈ 6.18 µg/mL) | >300 µM | 9 µM (≈ 6.18 µg/mL) | >200 µM | 146 µM (≈ 100 µg/mL)
CO[C@@H]1[C@@H](OC(N)=O)[C@@H](O)[C@H](Oc2ccc3c(O)c(NC(=O)c4cccc(N5CCOCC5)c4)c(=O)oc3c2C)OC1(C)C [Compound 23] | > 100 µM | > 100 µM | > 50 µM | 82 µM (≈ 50.3 µg/mL) | > 300 µM | 82 µM (≈ 50.3 µg/mL) | > 200 µM | > 200 µM |  |  |  |  |  |  |  | 
CO[C@@H]1[C@@H](OC(N)=O)[C@@H](O)[C@H](Oc2ccc3c(O)c(NC(=O)c4cc(-c5ccc(F)cc5)c(O)cc4O)c(=O)oc3c2C)OC1(C)C [Compound 84] |  |  |  |  |  |  |  |  | 81 µM (≈ 53 µg/mL) | 40 µM (≈ 26.2 µg/mL) | >50 µM | 5 µM (≈ 3.27 µg/mL) | 8 µM (≈ 5.24 µg/mL) | 5 µM (≈ 3.27 µg/mL) | 8 µM (≈ 5.24 µg/mL) | 10 µM (≈ 6.55 µg/mL)
CO[C@@H]1[C@@H](OC(N)=O)[C@@H](O)[C@H](Oc2ccc3c(O)c(NC(=O)c4cccc(-c5ccccc5C)c4)c(=O)oc3c2C)OC1(C)C [Compound 47] | > 100 µM | > 100 µM | > 50 µM | 20 µM (≈ 12.4 µg/mL) | 26 µM (≈ 16.1 µg/mL) | 10 µM (≈ 6.19 µg/mL) | 26 µM (≈ 16.1 µg/mL) | 40 µM (≈ 24.7 µg/mL) |  |  |  |  |  |  |  | 
COc1cccc(-c2cccc(C(=O)Nc3c(O)c4ccc(O[C@@H]5OC(C)(C)[C@H](OC)[C@@H](OC(N)=O)[C@H]5O)c(C)c4oc3=O)c2)c1 [Compound 45] | > 100 µM | > 100 µM |  |  | 89 µM (≈ 56.5 µg/mL) |  |  |  |  |  | >50 µM | 5 µM (≈ 3.17 µg/mL) |  | 3 µM (≈ 1.9 µg/mL) | 89 µM (≈ 56.5 µg/mL) | 79 µM (≈ 50.1 µg/mL)
CO[C@@H]1[C@@H](OC(N)=O)[C@@H](O)[C@H](Oc2ccc3c(O)c(NC(=O)c4ccc(-c5ccccc5)cc4)c(=O)oc3c2C)OC1(C)C [Compound 2] | > 100 µM | > 100 µM | > 50 µM | 21 µM (≈ 12.7 µg/mL) | > 300 µM | 21 µM (≈ 12.7 µg/mL) | > 200 µM | > 200 µM |  |  |  |  |  |  |  | 
COc1ccc(-c2cccc(C(=O)Nc3c(O)c4ccc(O[C@@H]5OC(C)(C)[C@H](OC)[C@@H](OC(N)=O)[C@H]5O)c(C)c4oc3=O)c2)cc1 [Compound 46] | > 100 µM | > 100 µM | > 50 µM | 5 µM (≈ 3.17 µg/mL) | > 300 µM | 3 µM (≈ 1.9 µg/mL) | > 200 µM | > 200 µM |  |  |  |  |  |  |  | 
CO[C@@H]1[C@@H](OC(N)=O)[C@@H](O)[C@H](Oc2ccc3c(O)c(NC(=O)c4cc(-c5ccccc5)ccc4N)c(=O)oc3c2C)OC1(C)C [Compound 85] |  |  |  |  |  |  |  |  | >100 µM | >100 µM | >50 µM | 5 µM (≈ 3.1 µg/mL) | 59 µM (≈ 36.6 µg/mL) | 2.5 µM (≈ 1.55 µg/mL) | 59 µM (≈ 36.6 µg/mL) | 40 µM (≈ 24.8 µg/mL)
CO[C@@H]1[C@@H](OC(N)=O)[C@@H](O)[C@H](Oc2ccc3c(O)c(NC(=O)c4cccc(-c5ccc6ccccc6c5)c4)c(=O)oc3c2C)OC1(C)C [Compound 39] |  |  |  |  |  |  |  |  | >100 µM | >100 µM | 5 µM (≈ 3.27 µg/mL) | 0.19 µM (≈ 0.124 µg/mL) | >300 µM | 0.1 µM (≈ 0.0655 µg/mL) | >200 µM | 153 µM (≈ 100 µg/mL)
CO[C@@H]1[C@@H](OC(N)=O)[C@@H](O)[C@H](Oc2ccc3c(O)c(NC(=O)c4cccc(-c5cccs5)c4)c(=O)oc3c2C)OC1(C)C [Compound 22] | > 100 µM | > 100 µM | > 50 µM | 10 µM (≈ 6.11 µg/mL) | 89 µM (≈ 54.3 µg/mL) | 10 µM (≈ 6.11 µg/mL) | 89 µM (≈ 54.3 µg/mL) | 164 µM (≈ 100 µg/mL) |  |  |  |  |  |  |  | 
CO[C@@H]1[C@@H](OC(N)=O)[C@@H](O)[C@H](Oc2ccc3c(O)c(NC(=O)c4ccc(O)c(-c5ccc(F)cc5)c4)c(=O)oc3c2C)OC1(C)C [Compound 79] |  |  |  |  |  |  |  |  | >100 µM | 78 µM (≈ 49.8 µg/mL) | 20 µM (≈ 12.8 µg/mL) | 2 µM (≈ 1.28 µg/mL) | 26 µM (≈ 16.6 µg/mL) | 0.98 µM (≈ 0.626 µg/mL) | 26 µM (≈ 16.6 µg/mL) | 20 µM (≈ 12.8 µg/mL)
CO[C@@H]1[C@@H](OC(N)=O)[C@@H](O)[C@H](Oc2ccc3c(O)c(NC(=O)c4cccc(-c5cccnc5)c4)c(=O)oc3c2C)OC1(C)C [Compound 29] | > 100 µM | > 100 µM | > 50 µM | 83 µM (≈ 50.3 µg/mL) | > 300 µM | 83 µM (≈ 50.3 µg/mL) | > 200 µM | > 200 µM |  |  |  |  |  |  |  | 
CO[C@@H]1[C@@H](OC(N)=O)[C@@H](O)[C@H](Oc2ccc3c(O)c(NC(=O)c4cc(-c5ccccc5)cc(-c5ccccc5)c4)c(=O)oc3c2C)OC1(C)C [Compound 75] |  |  |  |  |  |  |  |  | >100 µM | >100 µM | >50 µM | 18 µM (≈ 12.3 µg/mL) | >300 µM | 9 µM (≈ 6.13 µg/mL) | >200 µM | >200 µM
COc1ccccc1-c1cccc(C(=O)Nc2c(O)c3ccc(O[C@@H]4OC(C)(C)[C@H](OC)[C@@H](OC(N)=O)[C@H]4O)c(C)c3oc2=O)c1 [Compound 50] |  |  |  |  |  |  |  |  | >100 µM | >100 µM | >50 µM | 19 µM (≈ 12.1 µg/mL) | 40 µM (≈ 25.4 µg/mL) | 10 µM (≈ 6.35 µg/mL) | 40 µM (≈ 25.4 µg/mL) | 39 µM (≈ 24.8 µg/mL)
CO[C@@H]1[C@@H](OC(N)=O)[C@@H](O)[C@H](Oc2ccc3c(O)c(NC(=O)c4cccc(-c5ccccc5C(F)(F)F)c4)c(=O)oc3c2C)OC1(C)C [Compound 60] |  |  |  |  |  |  |  |  | >100 µM | >100 µM | >50 µM | 9 µM (≈ 6.05 µg/mL) | >300 µM | 5 µM (≈ 3.36 µg/mL) | >200 µM | >200 µM
CO[C@@H]1[C@@H](OC(N)=O)[C@@H](O)[C@H](Oc2ccc3c(O)c(NC(=O)c4ccc(Oc5ccccc5)cc4)c(=O)oc3c2C)OC1(C)C [Compound 44] |  |  |  |  |  |  |  |  | >100 µM | >100 µM | >50 µM | 45 µM (≈ 27.9 µg/mL) | >300 µM | 40 µM (≈ 24.8 µg/mL) | >200 µM | >200 µM

Reference: patent publication US11713335B2, “Aminocoumarin compounds and methods of their use” (President and Fellows of Harvard College, priority 2018, dated 2023)
